The test deals with Integrin alpha-4/beta-1 (Homo sapiens, UniProt P05556+P13612). As to the kind of experiment: Inhibition of Very late antigen 4 (VLA-4) and VCAM-Ig fusion protein interaction. The test is classed as protein-complex assay.

The IC50 is the concentration at which inhibition is half-maximal. Lower therefore signals greater potency.

Integrin alpha-4/beta-1, sequence (P05556 whole entry, the tested form may be a part): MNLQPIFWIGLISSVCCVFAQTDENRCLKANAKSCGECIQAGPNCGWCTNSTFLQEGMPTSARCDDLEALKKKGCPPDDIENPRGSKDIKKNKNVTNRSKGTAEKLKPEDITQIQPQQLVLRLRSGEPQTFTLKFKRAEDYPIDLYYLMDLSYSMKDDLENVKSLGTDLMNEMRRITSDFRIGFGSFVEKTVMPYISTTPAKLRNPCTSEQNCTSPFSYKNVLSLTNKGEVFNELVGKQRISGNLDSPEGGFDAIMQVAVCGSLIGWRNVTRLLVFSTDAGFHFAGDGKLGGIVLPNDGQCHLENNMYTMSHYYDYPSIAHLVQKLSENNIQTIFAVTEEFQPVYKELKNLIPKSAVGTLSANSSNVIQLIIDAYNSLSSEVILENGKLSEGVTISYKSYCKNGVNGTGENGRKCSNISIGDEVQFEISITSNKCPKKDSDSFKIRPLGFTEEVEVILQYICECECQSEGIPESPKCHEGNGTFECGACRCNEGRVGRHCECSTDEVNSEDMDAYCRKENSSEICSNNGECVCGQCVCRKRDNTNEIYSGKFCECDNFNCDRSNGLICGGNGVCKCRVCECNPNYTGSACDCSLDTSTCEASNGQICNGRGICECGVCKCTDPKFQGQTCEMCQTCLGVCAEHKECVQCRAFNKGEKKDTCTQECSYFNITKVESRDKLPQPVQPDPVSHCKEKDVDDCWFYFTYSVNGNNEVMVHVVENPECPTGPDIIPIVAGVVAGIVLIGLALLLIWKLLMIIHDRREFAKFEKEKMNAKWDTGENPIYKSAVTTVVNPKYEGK
Integrin alpha-4/beta-1, sequence (P13612 whole entry, the tested form may be a part): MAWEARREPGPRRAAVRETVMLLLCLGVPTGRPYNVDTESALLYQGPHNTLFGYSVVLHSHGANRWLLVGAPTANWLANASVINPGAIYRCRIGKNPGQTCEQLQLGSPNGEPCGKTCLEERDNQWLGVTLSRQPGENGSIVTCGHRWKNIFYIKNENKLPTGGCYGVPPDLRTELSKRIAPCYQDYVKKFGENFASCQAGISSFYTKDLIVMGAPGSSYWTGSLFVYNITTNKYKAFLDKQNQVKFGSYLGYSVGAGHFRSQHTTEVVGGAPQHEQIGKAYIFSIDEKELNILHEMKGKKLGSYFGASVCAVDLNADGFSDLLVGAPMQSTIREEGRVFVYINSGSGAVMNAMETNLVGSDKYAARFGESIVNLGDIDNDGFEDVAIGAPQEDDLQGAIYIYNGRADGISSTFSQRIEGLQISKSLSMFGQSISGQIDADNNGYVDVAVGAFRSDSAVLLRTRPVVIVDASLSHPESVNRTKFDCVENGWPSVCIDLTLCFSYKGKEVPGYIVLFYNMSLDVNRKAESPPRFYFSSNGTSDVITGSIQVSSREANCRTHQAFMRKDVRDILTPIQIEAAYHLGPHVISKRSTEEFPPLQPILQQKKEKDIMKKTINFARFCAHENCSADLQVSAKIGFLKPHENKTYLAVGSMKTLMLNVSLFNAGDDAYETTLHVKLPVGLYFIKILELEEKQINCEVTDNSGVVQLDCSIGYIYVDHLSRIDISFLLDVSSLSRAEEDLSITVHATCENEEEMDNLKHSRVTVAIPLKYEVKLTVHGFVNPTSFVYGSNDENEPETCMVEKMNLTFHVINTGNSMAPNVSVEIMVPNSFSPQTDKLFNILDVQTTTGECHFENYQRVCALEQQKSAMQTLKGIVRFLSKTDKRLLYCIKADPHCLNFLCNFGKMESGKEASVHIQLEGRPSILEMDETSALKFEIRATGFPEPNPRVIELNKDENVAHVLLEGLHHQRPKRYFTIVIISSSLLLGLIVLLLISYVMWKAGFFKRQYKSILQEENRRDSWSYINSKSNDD

With `Cc1ccccc1NC(=O)Nc1ccc(CC(=O)Nc2nc(CC(=O)O)cs2)cc1`, 15000 nM corresponded to half-maximal inhibition (IC50).

In turn, `Cc1ccccc1NC(=O)Nc1ccc(CC(=O)Nc2cn(CCC(=O)O)c(C)n2)cc1` returned an IC50 of 3000 nM.

`Cc1ccccc1NC(=O)Nc1ccc(CC(=O)Nc2ccc3cnn(C(=O)NCC(=O)O)c3c2)cc1` had an IC50 of 800 nM.

`Cc1ccccc1NC(=O)Nc1ccc(CC(=O)Nc2cccc(CCC(=O)O)c2)cc1` registered an IC50 of 11400 nM.

In turn, `Cc1ccccc1NC(=O)Nc1ccc(CC(=O)Nc2ccc(C(C)CC(=O)O)cc2)cc1` (configuration not stated) showed an IC50 of 1.3 nM.

Regarding `Cc1ccccc1NC(=O)Nc1ccc(CC(=O)Nc2cccc(C(O)CC(=O)O)c2)cc1` (configuration not stated), inhibition was half-maximal at 2000 nM (IC50).

Take `Cc1ccccc1NC(=O)Nc1ccc(CC(=O)Nc2cccc(C(C)CC(=O)O)c2)cc1` (configuration not stated): the IC50 was 2500 nM.

Compound `Cc1ccccc1NC(=O)Nc1ccc(CC(=O)Nc2cccc(NC(=O)NCC(=O)O)c2)cc1` registered an IC50 of 67 nM.

Regarding `Cc1ccccc1NC(=O)Nc1ccc(CC(=O)Nc2cccc(C(=O)NCC(=O)O)c2)cc1`, the half-inhibitory concentration (IC50) was found to be 1200 nM.

Consider `CC(=O)NC(Cc1ccc(NC(=O)Cc2ccc(NC(=O)Nc3ccccc3C)cc2)cc1)C(=O)O` (configuration not stated), for which the IC50 was found to be 58 nM.

Take `Cc1ccccc1NC(=O)Nc1ccc(CC(=O)Nc2nnc(SCC(=O)O)s2)cc1`: 2300 nM corresponded to half-maximal inhibition (IC50).

Regarding `C=C(S/C(=N\C(=O)Cc1ccc(NC(=O)Nc2ccccc2C)cc1)NCCC(=O)O)c1ccccc1`, the IC50 came out at 20000 nM.

Values taken from ChEMBL document CHEMBL1135497, “Identification of potent and novel alpha4beta1 antagonists using in silico screening” (J Med Chem, 2002).
